Data taken from patent US10570179B2, “Substituted urea depsipeptide analogs as activators of the CLPP endopeptidase” (priority 2016, dated 2020).
Values after ≈ are worked out from the molar mass of the structure shown. Numbered stars: 1 amine (or outer) side, 2 acyl side, 3 side chain; on linkers, the order of the positions; unused ones are H or OH. Bridge positions count the residues as written; N and C are the ends. Square brackets hold non-standard residues; d marks the D form. Peptide text beside a SMILES is read from it. * marks the point of attachment. Piperazine(2S-CO,4-Me) = CN1CCN[C@H](C(=O)O)C1; Phe(3-OMe) = COc1cccc(C[C@H](N)C(=O)O)c1; Phe(3-Me) = Cc1cccc(C[C@H](N)C(=O)O)c1; X4 = O=C1CN([*:1])[C@H](C(=O)[*:2])CN1; NH(4-Cl-2-F-phenyl) = Fc1cc(Cl)ccc1N*; Pro(4R-Me) = C[C@H]1CN[C@H](C(=O)O)C1; aThr = C[C@H](O)[C@H](N)C(=O)O; Pip = O=C(O)[C@@H]1CCCCN1; X3 = c1cc2c(cc1N*)OCCO2; CO = O=C([*:1])[*:2]

Experiments:
[1] = target: T1, Sa-ClpP (Staphylococcus aureus, UniProt Q2G036); assay: ADEP displacement fluorescence polarization assay; type: binding, S. aureus; details: displacement of FP probe ADEP 2591 from Sa-ClpP
T1 construct: made in house; host or cells: E. coli BL21 (DE3)
Method: A fluorescence polarization (FP) assay was used to determine the activity of the disclosed compounds in displacing an ADEP analogue from ClpP. Briefly, the assay was performed in black 384 well, flat bottom, low volume plates (Greiner Bio-One, Monroe, N.C., catalog #784076). 20 μL of a pre-equilibrated (1 hr, room temperature) master mix (15 μM Sa-ClpP, 2% DMSO (v/v) and 50 nM FP probe in TrisHCl, pH 8.0)) was pipetted into each well using a Well-Mate (Thermo Scientific, Waltham, Mass.). Sa-ClpP was prepared as described above for the ClpP activation assay. The FP probe was ADEP 2591 (structure shown above). The ADEP 2591 comprises a TAMRA fluorophore linked to a core based on modified ADEP 2378 via a short alkyl linker. Using pin transfer, approximately 0.4 μL (2% v/v DMSO) of each compound or control was added per well. After addition of compounds and controls, plates were allowed to incubate for an additional 120 minutes at room temperature. All assays were performed in triplicate. Polarization was monitored using an EnVision Multilabel reader (Perkin-Elmer, Waltham, Mass.) by exciting the FP probe at 530±25 nm, and monitoring fluorescence intensity of both parallel and perpendicular polarized light at 579±25 nm. Readout was in millipolarization units (mP).
Signal gain and G factors were determined in wells containing 200 μM ADEP 2378, which had been previously verified (data not shown) as containing completely unbound ADEP 2591. Data collected was normalized to values obtained from positive (200 μM ADEP 2378) or negative (DMSO) controls. Curves were fit with non-linear regression using the equation “log [inhibitor] vs. Response-variable slope (four parameters)-symmetrical” in the program Prism 6 (GraphPad Software, La Jolla, Calif. USA, www.graphpad.com). The structures for ADEP 2378 and ADEP 2591 are shown above. ADEP 2378 is (E)-N—((S)-1-(((2R,6S,8aS,14aS,20S,23aS)-2,6-dimethyl-5,8,14,19,23-pentaoxooctadecahydro-1H,5H,14H,19H-pyrido[2,1-i]dipyrrolo[2,1-c:2′,1′-1][1]oxa[4,7,10,13]tetraazacyclohexadecin-20-yl)amino)-1-oxo-3-phenylpropan-2-yl)pent-2-enamide. ADEP 2591 is 5-(3-(3-((6S,9S,11aS,17S,20aS)-6,10-dimethyl-5,8,11,16,20-pentaoxo-17-((S)-2-((E)-pent-2-enamido)-3-phenylpropanamido)hexadecahydro-1H,5H,16H-dipyrrolo[2,1-c:2′,1′-1][1]oxa[4,7,10,13]tetraazacyclohexadecin-9-yl)propyl)thioureido)-2-(6-(dimethylamino)-3-(dimethyliminio)-3H-xanthen-9-yl)benzoate.

[2] = test system: E. faecails; assay: Minimal inhibitory concentration, microbroth dilution; type: cell-based; details: Enterococcus faecalis; MIC; read-out: Minimal Inhibitory Concentrations (μM) E. faecails
Method in brief: (§1)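 Susceptibility testing used the CLSI dilution standard, with bacteria at ~10^5 cfu/mL exposed to a two-fold compound series beginning at 200 μM final. The endpoint is the lowest concentration showing no growth after overnight incubation (37 °C, aerobic).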

[3] = test system: MRSA NRS70; assay: as above; type: cell-based; details: Staphylococcus aureus; MIC; read-out: Minimal Inhibitory Concentrations (μM) MRSA NRS70
Method in brief: as §1

[4] = test system: S. aureus ATCC 29213; assay: as above; type: cell-based; details: Staphylococcus aureus, ATCC29213; MIC; read-out: Minimal Inhibitory Concentrations (μM) S. aureus ATCC 29213
Method in brief: as §1

[5] = test system: S. aureus USA 300; assay: as above; type: cell-based; details: Staphylococcus aureus, USA300; MIC; read-out: Minimal Inhibitory Concentrations (μM) S. aureus USA 300
Method in brief: as §1

[6] = Microsomal metabolic stability; type: in vitro ADME, mouse; details: CD-1, mouse, pH 7.4
Method in brief: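 CD-1 mouse liver microsomes (0.6381 mg/mL protein microsomal solution, 0.1 M potassium phosphate pH 7.4 with EDTA) were incubated with compound and an NADPH-regenerating system at 37 °C, in triplicate. Acetonitrile/warfarin quench at 0, 15, 30, 60, 120 and 240 min, then LCMS. Half-life came from a first-order least-squares fit.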

T1 sequence (Q2G036 whole entry): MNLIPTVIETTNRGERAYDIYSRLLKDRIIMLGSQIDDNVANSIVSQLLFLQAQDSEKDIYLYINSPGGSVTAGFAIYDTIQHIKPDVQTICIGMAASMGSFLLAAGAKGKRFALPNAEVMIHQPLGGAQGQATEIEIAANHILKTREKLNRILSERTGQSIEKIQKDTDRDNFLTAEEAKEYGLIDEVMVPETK

| SMILES | IC50 [1] | MIC [2] | MIC [3] | MIC [4] | MIC [5] | Mouse [6] |
| --- | --- | --- | --- | --- | --- | --- |
| COc1cccc(C[C@H](NC(=O)Nc2ccc(Cl)cc2F)C(=O)N[C@H]2COC(=O)[C@@H]3C[C@@H](C)CN3C(=O)[C@H](C)NC(=O)[C@@H]3CN(C)CCN3C(=O)[C@@H]3CCCN3C2=O)c1 [Compound 19, (S)-2-(3-(4-CHLORO-2-FLUOROPHENYL)UREIDO)-3-(3-METHOXYPHENYL)-N-((6AS,12S,15AS,17R,21S,23AS)-2,17,21-TRIMETHYL-6,11,15,20,23-PENTAOXOOCTADECAHYDRO-2H,6H,11H,15H-PYRAZINO[2,1-I]DIPYRROLO[2,1-C:2′,1′-L][1]OXA[4,7,10,13]TETRAAZACYCLOHEXADECIN-12-YL)PROPANAMIDE] ({NH(4-Cl-2-F-phenyl)-CO}-[Phe(3-OMe)]SP[Piperazine(2S-CO,4-Me)]A[Pro(4R-Me)]; ester 2-C) | 6.05 ± 0.3 µM | 10 µM (≈ 8.41 µg/mL) | 10 µM (≈ 8.41 µg/mL) | 10 µM (≈ 8.41 µg/mL) | 10 µM (≈ 8.41 µg/mL) | 0.80 ± 0.05 h |
| Cc1cccc(C[C@H](NC(=O)Nc2ccc(Cl)cc2F)C(=O)N[C@@H]2C(=O)N3CCC[C@H]3C(=O)N3CC(=O)NC[C@H]3C(=O)N[C@@H](C)C(=O)N3C[C@H](C)C[C@H]3C(=O)O[C@H]2C)c1 [Compound 20, (S)-2-(3-(4-CHLORO-2-FLUOROPHENYL)UREIDO)-3-(M-TOLYL)-N-((6AS,12S,13S,15AS,17R,21S,23AS)-13,17,21-TRIMETHYL-3,6,11,15,20,23-HEXAOXOOCTADECAHYDRO-2H,6H,11H,15H-PYRAZINO[2,1-I]DIPYRROLO[2,1-C:2′,1′-L][1]OXA[4,7,10,13]TETRAAZACYCLOHEXADECIN-12-YL)PROPANAMIDE] ({NH(4-Cl-2-F-phenyl)-CO}-[Phe(3-Me)][aThr]P[X4]A[Pro(4R-Me)]; ester 2-C) | 4.21 ± 0.2 µM | 2.5 µM (≈ 2.1 µg/mL) | 5 µM (≈ 4.2 µg/mL) | 1.25 µM (≈ 1.05 µg/mL) | 5 µM (≈ 4.2 µg/mL) | 6.24 ± 0.7 h |
| Cc1cccc(C[C@H](NC(=O)Nc2ccc3c(c2)OCCO3)C(=O)N[C@@H]2C(=O)N3CCC[C@H]3C(=O)N3CCCC[C@H]3C(=O)N[C@@H](C)C(=O)N3C[C@H](C)C[C@H]3C(=O)O[C@H]2C)c1 [Compound 21, (S)-2-(3-(2,3-DIHYDROBENZO[B][1,4]DIOXIN-6-YL)UREIDO)-3-(M-TOLYL)-N-((2R,6S,8AS,14AS,20S,21S,23AS)-2,6,21-TRIMETHYL-5,8,14,19,23-PENTAOXOOCTADECAHYDRO-1H,5H,14H,19H-PYRIDO[2,1-I]DIPYRROLO[2,1-C:2′,1′-L][1]OXA[4,7,10,13]TETRAAZACYCLOHEXADECIN-20-YL)PROPANAMIDE] ({X3-CO}-[Phe(3-Me)][aThr]P[Pip]A[Pro(4R-Me)]; ester 2-C) | 3.74 ± 0.24 µM | 0.625 µM (≈ 0.519 µg/mL) | 0.313 µM (≈ 0.26 µg/mL) | 0.625 µM (≈ 0.519 µg/mL) | 1.25 µM (≈ 1.04 µg/mL) | 3.38 ± 0.37 h |
| Cc1cccc(C[C@H](NC(=O)Nc2ccc3c(c2)OCCO3)C(=O)N[C@H]2COC(=O)[C@@H]3C[C@@H](C)CN3C(=O)[C@H](C)NC(=O)[C@@H]3CCCCN3C(=O)[C@@H]3CCCN3C2=O)c1 [Compound 22, (S)-2-(3-(2,3-DIHYDROBENZO[B][1,4]DIOXIN-6-YL)UREIDO)-N-((2R,6S,8AS,14AS,20S,23AS)-2,6-DIMETHYL-5,8,14,19,23-PENTAOXOOCTADECAHYDRO-1H,5H,14H,19H-PYRIDO[2,1-I]DIPYRROLO[2,1-C:2′,1′-L][1]OXA[4,7,10,13]TETRAAZACYCLOHEXADECIN-20-YL)-3-(M-TOLYL)PROPANAMIDE] | 4.12 ± 0.29 µM | 1.25 µM (≈ 1.02 µg/mL) | 1.25 µM (≈ 1.02 µg/mL) | 5 µM (≈ 4.08 µg/mL) | 5 µM (≈ 4.08 µg/mL) | 4.48 ± 0.61 h |
